Data on two molecules can be found in article PMC9853848 (Journal of the American Chemical Society, 2022).

Test [1] deals with P91. To be noted: P91-R2; 25 °C, pH 8.0; covalent intermediate.
The test system of test [2] is T1, P91.
T1 construct: full-length, N-terminal His6-tag, purified recombinant (E. coli); Cys118-His199-Asp167 triad
Type of test: biochemical, uncultured bacterium. Particulars: read-out: KM (μM) ^b.

Test [3] deals with T1, P91. It is filed as biochemical, uncultured bacterium.

Like-named read-outs stand apart in the source and are kept apart here.

`CCOP(=O)(OCC)Oc1ccc([N+](=O)[O-])cc1` [compound 2, paraoxon-ethyl]: the Km with P91 [1] is 290 µM.

Turning to `CCOP(=O)(OCC)Oc1ccc2c(c1)Oc1cc(OP(=O)(OCC)OCC)ccc1C21OC(=O)c2ccccc21` [compound 1, FDDEP], in the test on P91 [2], the Michaelis-Menten constant (Km) came to 46 ± 9.7 µM. Further, the inhibitory constant (Ki) on P91 [3] amounted to 290 ± 89 µM.

One may read the Km as the substrate concentration at which the rate is half of its maximum. In general, Ki refers to the equilibrium dissociation constant of an inhibitor or competing ligand from its target. High values mean a looser hold on the target, low ones a stronger hold on the target.
